Data set [1] deals with patient positive for anti-NR1 NMDAR antibodies. Put plainly: Neurocognitive assessment battery (overall). It counts as in vivo, human. On the procedure: (§1) The trial consisted of two periods, starting with a 2 week lead-in/stabilization period (−2-0) following which the patient was entered in the second period of the study which consisted of a 6 week (0-6), open-label, fixed dose therapy phase. During this phase, the patient received adjuvant treatment with DSR, whose dose was increased from 1500 mg/day (week 1) to 2000 mg/day (weeks 2 and 3) to 3000 mg/day (weeks 4 and 5) and to 4000 mg/day (week 6). The doses of the ongoing medication received by the patient remained fixed throughout the study and no changes in medication were performed.
(§2) In addition, cognitive performance was assessed pre- and post DSR treatment. For this purpose, a 1.5-hour neurocognitive assessment battery (nine computerized and two paper/pencil tests) was employed that measures accuracy and speed of performance in major cognition domains, including attention/vigilance, planning, short-term and working memory, decision making, abstraction and mental flexibility. All the tests were formatted like games and puzzles, and were administered to the patient as part of the comprehensive neuropsychiatric assessment at baseline and the end of study. […]

Data set [2] shares this test system. Put plainly: Wisconsin Card Sort Test (WCST). The settings on record: post-6 weeks D-serine; pre-treatment subject unable to complete task. It counts as in vivo, human. On the procedure: as §1
(§3) In addition, cognitive performance was assessed pre- and post DSR treatment. For this purpose, a 1.5-hour neurocognitive assessment battery (nine computerized and two paper/pencil tests) was employed that measures accuracy and speed of performance in major cognition domains, including attention/vigilance, planning, short-term and working memory, decision making, abstraction and mental flexibility. All the tests were formatted like games and puzzles, and were administered to the patient as part of the comprehensive neuropsychiatric assessment at baseline and the end of study. The neurocognitive battery included the 1) Test of Attentional Vigilance (TOAV, (Forbes, 1998, Journal of Clinical Psychology 54:461-476; Greenberg, 1993, Journal of Child Psychology and Psychiatry 34: 1019-30)); 2) Tower of London (TOL, (Shailice, 1982, Specific impairments of planning Philosophical Transactions of the Royal Society of London. Series B, Biological Sciences 298:199-209); 3-4) Digit Span Test (DST, forward and backward (Wechsler 1997, The Wechsler adult intelligence scale-III. San Antonio, Tex.: Psychological Corporation; Kaplan 1991, The WAIS-R as a neuropsychological instrument. San Antonio, Tex.: The Psychological Corporation; Lamar et al., 2007, Neuropsychologia 45:245-54; Lamar et al., 2008, Neuropsychologia 46:2597-601)); 5-6) Corsi Block Tapping Test (CBTT, forward and backward, (Corsi, 1972, Dissertation Abstracts International. 34:819B; Kessels et al., 2000, Applied Neuropsychology 7:252-58, Kessels et al., 2008, Assessment 15:426-34)); 7) Flanker Task (Erikson and Eriksen, 1974; Perception & Psychophysics 25: 249-63, Stins et. al., 2007, Advances in Cognitive Psychology 3:389-96); 8) Time Wall (Perez et al., 1987, Unified Tri-services cognitive performance assessment battery: review and methodology; DTIC Document ADA181697, http://www.dtic.mil/dtic/tr/fulltext/u2/a81697.pdf); and Wisconsin Card Sort Test (WCST, (Berg, 1948, J Gen Psychol39:15-22; Nelson, 1976, Cortex 12:313-24)). […]

The test system is the same in data set [3]. Put plainly: Flanker Task. The class given is in vivo, human. The settings on record: post-6 weeks D-serine. How it is done: as §1
In addition, cognitive performance was assessed pre- and post DSR treatment. For this purpose, a 1.5-hour neurocognitive assessment battery (nine computerized and two paper/pencil tests) was employed that measures accuracy and speed of performance in major cognition domains, including attention/vigilance, planning, short-term and working memory, decision making, abstraction and mental flexibility. All the tests were formatted like games and puzzles, and were administered to the patient as part of the comprehensive neuropsychiatric assessment at baseline and the end of study. The neurocognitive battery included the 1) Test of Attentional Vigilance (TOAV, (Forbes, 1998, Journal of Clinical Psychology 54:461-476; Greenberg, 1993, Journal of Child Psychology and Psychiatry 34: 1019-30)); 2) Tower of London (TOL, (Shailice, 1982, Specific impairments of planning Philosophical Transactions of the Royal Society of London. Series B, Biological Sciences 298:199-209); 3-4) Digit Span Test (DST, forward and backward (Wechsler 1997, The Wechsler adult intelligence scale-III. San Antonio, Tex.: Psychological Corporation; Kaplan 1991, The WAIS-R as a neuropsychological instrument. San Antonio, Tex.: The Psychological Corporation; Lamar et al., 2007, Neuropsychologia 45:245-54; Lamar et al., 2008, Neuropsychologia 46:2597-601)); 5-6) Corsi Block Tapping Test (CBTT, forward and backward, (Corsi, 1972, Dissertation Abstracts International. 34:819B; Kessels et al., 2000, Applied Neuropsychology 7:252-58, Kessels et al., 2008, Assessment 15:426-34)); 7) Flanker Task (Erikson and Eriksen, 1974; Perception & Psychophysics 25: 249-63, Stins et. al., 2007, Advances in Cognitive Psychology 3:389-96); 8) Time Wall (Perez et al., 1987, Unified Tri-services cognitive performance assessment battery: review and methodology; DTIC Document ADA181697, http://www.dtic.mil/dtic/tr/fulltext/u2/a81697.pdf); and Wisconsin Card Sort Test (WCST, (Berg, 1948, J Gen Psychol39:15-22; Nelson, 1976, Cortex 12:313-24)). In addition to the nine computerized tests, the patient completed two paper/pencil tests: 10-11) part A and part B of the Trail-Making-Test (TMT, (Reitan, 1958, Percept. Mot Skills 8:271-76; Reitan, 1992 Trail Making Test: Manual for administration and scoring. Tucson, Ariz.: Reitan Neuropsychology Laboratory)) according to the guidelines presented by Spreen and Strauss (1998)). All neurocognitive testing was completed in a private and quiet setting to limit any distractions.

Data set [4] shares this test system. Put plainly: Side effects and tolerability (UKU Side Effect Rating Scale, medical work-up), D-serine clinical trial. It counts as in vivo, human. The settings on record: throughout the study; 1500 to 4000 mg/day over 6 weeks, adjuvant. How it is done:
as §1
The patient underwent prior to entering the study and at study weeks 3 and 6 a medical work-up including complete medical history, and routine clinical blood work, including blood count+differential, lipids, and glucose levels, kidney, thyroid, and liver function parameters, urinalysis, and blood pressure measurements. Abdominal ultrasound was performed prior to study entry and electroencephalogram (EEG) and brain magnetic resonance imaging (MR1) were obtained pre- and post-DSR administration.
The assessment procedures used in the study included clinical and neurocognitive examinations. Motor and psychiatric symptoms as well as side-effects were rated biweekly throughout the study. […] In conjunction with UKU ratings, patient's vital signs and body weight were monitored throughout the study.

The conditions of data set [5]: doses of ≤4 g/day; cited from earlier work.
The test system of data set [6] is patient positive for anti-NR1 NMDAR antibodies. Put plainly: Corsi Block Tapping Test (CBTT), forward and backward. The class given is in vivo, human. The settings on record: post-6 weeks D-serine. On the procedure: as §1, §3
Data set [7] has the same test system. Put plainly: Trail-Making-Test (TMT) part A and part B. It counts as in vivo, human. The settings on record: post-6 weeks D-serine. How it is done:
as §1, §2

In the case of `N[C@H](CO)C(=O)O` [D-serine], the “Completion of DST, TMT and WCST tasks” value in data set [1] (post-DSR treatment, not comprehended/performed at baseline) is given as “successfully completed”. In data set [1] (post-DSR vs baseline, improvements in working memory, abstraction and mental flexibility), the “Effect upon cognitive performance (test battery)” value is “favorable effect”. Also, in data set [2], the “WCST Category Score” value stood at 5, the “WCST Total correct score %” value turned out to be 81.25%, the “WCST Total error score %” value is recorded as 18.75% and the “WCST Trials to complete 1st category” value is listed as 12. Also, the “Flanker Task Incongruous accuracy, mean ± SD” value in data set [3] (pre-treatment 0.450 ± 0.499) worked out at 0.575 ± 0.494 proportion correct. Moreover, in data set [3] (pre-treatment 0.475 ± 0.499), the “Flanker Task Congruous accuracy, mean ± SD” value was determined as 0.65 ± 0.476 proportion correct and the “Flanker Task Neutral accuracy, mean ± SD” value is recorded as 0.65 ± 0.476 proportion correct. For the same molecule, in data set [3] (pre-treatment 725.03 ± 130.03), the “Flanker Task Congruous response time, mean ± SD” value turned out to be 651.93 ± 130.16 milliseconds. In addition, the “Flanker Task Neutral response time, mean ± SD” value in data set [3] (pre-treatment 732.18 ± 127.96) was 688.23 ± 99.19 milliseconds. Further, in data set [3] (pre-treatment 737.38 ± 131.34), the “Flanker Task Incongruous response time, mean ± SD” value is 713.3 ± 102.14 milliseconds. For the same molecule, in data set [4], the Side effects result was “no side effects were registered” and the “Tolerability of DSR treatment” value was “well tolerated”. Further, in data set [5], the Adverse events entry is given as “No significant adverse events”. Besides, the “CBTT Backward Span Length (2-9)” value in data set [6] (pre-treatment 4) was 3.5. In addition, in data set [6] (pre-treatment 5), the “CBTT Forward Span Length (2-9)” value worked out at 4. Moreover, the “CBTT Backward Number Correct (0-16)” value in data set [6] (pre-treatment 6) came to 5. In data set [6] (pre-treatment 8), the “CBTT Forward Number Correct (0-16)” value stood at 6. Also, the “TMT Part A” value in data set [7] (pre-treatment 42) is 60.71 s. Further, the “TMT Part B” value in data set [7] (pre-treatment 102) came to 86.35 s.

These data come from patent US11213522B2, “Autoimmune-induced glutamatergic receptor dysfunction methods and treatments” (SARAH HERZOG MEMORIAL HOSPITAL EZRAT NASHIM ASSOCIATION, priority 2013, dated 2022).
